Measured values from ChEMBL document CHEMBL1909046, “DrugMatrix in vitro pharmacology data”.

How the values were obtained:
[1] = biological target: T1, 5-hydroxytryptamine receptor 1A (Rattus norvegicus, UniProt P19327); assay type: cell membranes, CHO-K1, Membrane; details: cho-k1; note: in other assays of this panel Not Active means under 50% inhibition at 10 µM
T1 sequence (P19327 whole entry): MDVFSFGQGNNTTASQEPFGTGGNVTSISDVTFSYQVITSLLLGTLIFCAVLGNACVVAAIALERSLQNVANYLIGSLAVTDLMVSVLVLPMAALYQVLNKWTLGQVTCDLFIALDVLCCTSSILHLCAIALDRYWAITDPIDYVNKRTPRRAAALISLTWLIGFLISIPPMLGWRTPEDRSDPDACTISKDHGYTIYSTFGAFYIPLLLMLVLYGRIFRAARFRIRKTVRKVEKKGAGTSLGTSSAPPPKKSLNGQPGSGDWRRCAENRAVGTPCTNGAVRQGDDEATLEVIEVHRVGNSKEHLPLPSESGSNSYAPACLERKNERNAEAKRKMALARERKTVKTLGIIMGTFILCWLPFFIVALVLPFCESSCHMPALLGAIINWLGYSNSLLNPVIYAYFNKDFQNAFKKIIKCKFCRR

[2] = biological target: T2, Alpha-1D adrenergic receptor (Homo sapiens, UniProt P25100); assay type: cell membranes, HEK293, Membrane; details: hek293; note: in other assays of this panel Not Active means under 50% inhibition at 10 µM
T2 sequence (P25100 whole entry): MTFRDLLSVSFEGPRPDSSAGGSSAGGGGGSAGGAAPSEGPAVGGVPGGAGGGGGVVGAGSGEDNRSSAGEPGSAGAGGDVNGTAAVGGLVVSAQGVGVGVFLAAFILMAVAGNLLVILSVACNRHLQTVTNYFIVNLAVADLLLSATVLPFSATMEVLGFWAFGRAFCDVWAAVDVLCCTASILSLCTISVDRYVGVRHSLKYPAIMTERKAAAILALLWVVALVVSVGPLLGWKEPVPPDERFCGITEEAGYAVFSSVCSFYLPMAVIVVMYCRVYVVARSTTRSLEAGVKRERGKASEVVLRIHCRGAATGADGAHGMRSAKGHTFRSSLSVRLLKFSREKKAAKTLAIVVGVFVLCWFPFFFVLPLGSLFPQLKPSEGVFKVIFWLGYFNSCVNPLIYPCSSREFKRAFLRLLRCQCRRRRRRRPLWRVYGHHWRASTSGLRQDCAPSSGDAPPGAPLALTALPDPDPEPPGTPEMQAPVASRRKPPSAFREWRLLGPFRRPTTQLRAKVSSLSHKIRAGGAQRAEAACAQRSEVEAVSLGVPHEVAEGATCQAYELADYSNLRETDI

[3] = biological target: Sodium-dependent dopamine transporter (Homo sapiens, UniProt Q01959); test: DRUGMATRIX: Dopamine Transporter radioligand binding (ligand: [125I] RTI-55); assay type: cell membranes, CHO-K1, Membrane; details: cho-k1; Not Active = under 50% inhibition at 10 µM
[4] = DRUGMATRIX: Potassium Channel [KATP] radioligand binding (ligand: [3H] Glyburide); assay type: cell membranes, Membrane; details: hit-t15, Not Active = under 50% inhibition at 10 µM
[5] = biological target: Matrix metalloproteinase-9 (Homo sapiens, UniProt P14780); assay type: cell-based;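 note: inhibition of isolated MMP-9 enzyme activity toward a synthetic peptide substrate, from the DrugMatrix protease screening panel; in other assays of this panel Not Active means under 50% inhibition at 10 µM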
[6] = biological target: Protein phosphatase 3 catalytic subunit alpha (Homo sapiens, UniProt Q08209); design: species or system Escherichia coli;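 note: inhibition of calcineurin (PP2B) enzyme activity, measured with DiFMUP as the substrate; in other assays of this panel Not Active means under 50% inhibition at 10 µM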

Sodium-dependent dopamine transporter, sequence (Q01959 whole entry): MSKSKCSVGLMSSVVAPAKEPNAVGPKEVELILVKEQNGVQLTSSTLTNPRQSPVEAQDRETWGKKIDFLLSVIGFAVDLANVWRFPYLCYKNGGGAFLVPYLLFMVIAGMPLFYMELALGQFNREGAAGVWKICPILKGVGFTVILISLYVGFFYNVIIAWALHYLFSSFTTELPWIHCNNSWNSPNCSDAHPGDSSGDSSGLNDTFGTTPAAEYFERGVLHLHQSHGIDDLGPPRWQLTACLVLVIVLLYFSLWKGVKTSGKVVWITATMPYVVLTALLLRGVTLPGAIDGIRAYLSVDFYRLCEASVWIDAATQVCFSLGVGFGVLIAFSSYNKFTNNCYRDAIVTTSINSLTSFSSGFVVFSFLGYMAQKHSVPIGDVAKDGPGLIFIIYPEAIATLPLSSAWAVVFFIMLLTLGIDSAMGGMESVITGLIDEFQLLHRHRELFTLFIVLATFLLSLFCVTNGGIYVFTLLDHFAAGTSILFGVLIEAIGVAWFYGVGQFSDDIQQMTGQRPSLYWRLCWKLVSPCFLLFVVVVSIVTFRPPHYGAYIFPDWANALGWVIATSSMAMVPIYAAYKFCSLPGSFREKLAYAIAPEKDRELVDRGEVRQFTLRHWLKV
Matrix metalloproteinase-9, sequence (P14780 whole entry): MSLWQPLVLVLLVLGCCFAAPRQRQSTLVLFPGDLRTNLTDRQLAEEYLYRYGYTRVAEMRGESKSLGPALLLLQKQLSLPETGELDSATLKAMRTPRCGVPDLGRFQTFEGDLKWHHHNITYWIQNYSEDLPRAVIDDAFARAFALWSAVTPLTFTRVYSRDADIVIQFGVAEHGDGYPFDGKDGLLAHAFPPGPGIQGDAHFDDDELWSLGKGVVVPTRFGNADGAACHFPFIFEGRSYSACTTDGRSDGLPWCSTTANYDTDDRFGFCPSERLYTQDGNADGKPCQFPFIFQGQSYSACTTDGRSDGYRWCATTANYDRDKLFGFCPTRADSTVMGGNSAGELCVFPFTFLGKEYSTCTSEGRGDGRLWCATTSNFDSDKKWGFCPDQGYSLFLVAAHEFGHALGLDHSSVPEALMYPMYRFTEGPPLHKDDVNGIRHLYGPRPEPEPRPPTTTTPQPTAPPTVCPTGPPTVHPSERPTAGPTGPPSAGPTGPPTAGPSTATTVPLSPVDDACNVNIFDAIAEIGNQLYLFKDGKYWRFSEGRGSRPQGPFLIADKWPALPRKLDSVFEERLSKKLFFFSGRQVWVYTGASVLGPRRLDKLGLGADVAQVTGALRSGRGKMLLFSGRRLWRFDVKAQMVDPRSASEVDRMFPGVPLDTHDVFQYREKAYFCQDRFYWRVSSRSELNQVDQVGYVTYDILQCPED

CCC1=C(C)CN(C(=O)NCCc2ccc(S(=O)(=O)NC(=O)N[C@H]3CC[C@H](C)CC3)cc2)C1=O [GLIMEPIRIDE]
11 nM: Ki ([4]; read-out: Ki)
Not Active: IC50 [1] | IC50 [2] | IC50 [3] | IC50 [5] | IC50 [6]
100 nM: IC50 ([4]; read-out: IC50)

O=C(O)CCCc1cccs1
Not Active: IC50 [1] | IC50 [2] | IC50 [3] | IC50 [4] | Ki [4] | IC50 [5] | IC50 [6]

Cc1ccc(C)c(OCCCC(C)(C)C(=O)O)c1 [GEMFIBROZIL]
Not Active: IC50 [1] | IC50 [2] | IC50 [3] | IC50 [4] | Ki [4] | IC50 [5] | IC50 [6]

NNCCc1ccccc1 [PHENELZINE]
Not Active: IC50 [1] | IC50 [2] | IC50 [3] | IC50 [4] | Ki [4] | IC50 [5] | IC50 [6]

O=C(O)CCNC(=O)c1ccc(/N=N/c2ccc(O)c(C(=O)O)c2)cc1 [BALSALAZIDE]
Not Active: IC50 [1] | IC50 [2] | IC50 [3] | IC50 [4] | Ki [4] | IC50 [5] | IC50 [6]

C[S+](C)[O-] [DIMETHYL SULFOXIDE]
Not Active: IC50 [1] | IC50 [2] | IC50 [3] | IC50 [4] | Ki [4] | IC50 [5] | IC50 [6]

O=C(c1ccccc1F)N1CCC(Cc2ccccc2)CC1
Not Active: IC50 [1] | IC50 [2] | IC50 [3] | IC50 [4] | Ki [4] | IC50 [5] | IC50 [6]

COc1cc(OC)c(C(=O)CCCN2CCCC2)c(OC)c1 [BUFLOMEDIL]
Not Active: IC50 [1] | IC50 [2] | IC50 [3] | IC50 [4] | Ki [4] | IC50 [5] | IC50 [6]

COC(=O)Nc1nc2cc(C(=O)c3ccc(F)cc3)ccc2[nH]1 [FLUBENDAZOLE]
Not Active: IC50 [1] | IC50 [2] | IC50 [3] | IC50 [4] | Ki [4] | IC50 [5] | IC50 [6]

COc1ccnc(C[S+]([O-])c2nc3ccc(OC(F)F)cc3[nH]2)c1OC (stereo not drawn) [PANTOPRAZOLE]
Not Active: IC50 [1] | IC50 [2] | IC50 [3] | IC50 [4] | Ki [4] | IC50 [5] | IC50 [6]

CCc1ccc(CCOc2ccc(CC3SC(=O)NC3=O)cc2)nc1 (stereo not drawn) [PIOGLITAZONE]
Not Active: IC50 [1] | IC50 [2] | IC50 [3] | IC50 [4] | Ki [4] | IC50 [5] | IC50 [6]

CC[C@H]1[C@@H]2C[C@H]3[C@@H]4N(C)c5ccccc5[C@]45C[C@@H]([C@@H]2[C@H]5O)N3[C@@H]1O [AJMALINE]
Not Active: IC50 [1] | IC50 [2] | IC50 [3] | IC50 [4] | Ki [4] | IC50 [5] | IC50 [6]

CNC1=Nc2ccc(Cl)cc2C(c2ccccc2)=[N+]([O-])C1 [CHLORDIAZEPOXIDE]
Not Active: IC50 [1] | IC50 [2] | IC50 [3] | IC50 [4] | Ki [4] | IC50 [5] | IC50 [6]

C[C@@H]1O[C@@H](O[C@H]2C[C@@H](O)[C@]3(CO)[C@H]4[C@H](O)C[C@]5(C)[C@@H](C6=CC(=O)OC6)CC[C@]5(O)[C@@H]4CC[C@]3(O)C2)[C@H](O)[C@H](O)[C@H]1O [OUABAIN]
Not Active: IC50 [1] | IC50 [2] | IC50 [3] | IC50 [4] | Ki [4] | IC50 [5] | IC50 [6]
